Results as given in patent publication US7511048B2, “Pyrimidothienoindazoles” (Bayer Pharmaceuticals Corporation, priority 2004, dated 2009).
Counter-ions that a name gives are not always drawn.

Tests used:
[1] = system: A431 cells (human epidermoid carcinoma); experiment: In vitro tumor cell proliferation assay (Cell Titer-Glo luminescent cell viability), A431 cells; type: cell-based; conditions: A-431, 72 h drug exposure, ATP luminescence readout, read-out: IC50, anti-proliferative activity (inhibition of cell proliferation) in A431 cells
Source text: (§1) The tumor cell proliferation assay used to test the compounds of the present invention involves a readout called Cell Titer-Glow® Luminescent Cell Viability Assay developed by Promega® (Cunningham, B A “A Growing Issue: Cell Proliferation Assays, Modern kits ease quantification of cell growth” The Scientist 2001, 15(13), 26, and Crouch, S P et al., “The use of ATP bioluminescence as a measure of cell proliferation and cytotoxicity” Journal of Immunological Methods 1993, 160, 81-88), that measures inhibition of cell proliferation. Generation of a luminescent signal corresponds to the amount of ATP present, which is directly proportional to the number of metabolically active (proliferating) cells.
(§2) A431 cells (human epidermoid carcinoma, ATCC # HTB-20) and BT474 (human breast carcinoma, ATCC # CRL-1555) were plated at a density of 2.5×10^3 cells/well in 96 well black-clear bottom tissue culture plates in RPMI media with 10% Fetal Bovine Serum and incubated at 37° C. Twenty-four h later, test compounds are added at a final concentration range from as high 100 μm to as low 64 pM depend on the activities of the tested compounds in serial dilutions at a final DMSO concentration of 0.1%. Cells were incubated for 72 h at 37° C. in complete growth media after addition of the test compound. After 72 h of drug exposure, the plates were equilibrated to room temperature for approximately 30 min. Then, using a Promega Cell Titer Glo Luminescent® assay kit, lysis buffer containing 100 microliters of the enzyme luciferase and its substrate, luciferin mixture, was added to each well. The plates were mixed for 2 min on orbital shaker to ensure cell lysis and incubated for 10 min at room temperature to stabilize luminescence signal. The samples were read on VICTOR 2 using Luminescence protocol, and analyzed with Analyze5 software to generate IC50 values.
(§3) For determination of IC50's, a linear regression analysis can be used to determine drug concentration which results in a 50% inhibition of cell proliferation using this assay format. In A431 cells, Examples 1-7, 9-11, 14-18, and 20-21 have IC50's≦5 μM; whereas examples 8, 12, 13, 19, and 22 have IC50's≦50 μM. In BT474 cells, examples 1-7, 9-11, 13-18, and 20-22 have IC50's≦50 μM; whereas examples 8, 12, and 19 have IC50's≦50 μM.

[2] = system: BT474 (human breast carcinoma); experiment: In vitro tumor cell proliferation assay (Cell Titer-Glo luminescent cell viability), BT474 cells; type: cell-based; conditions: BT-474, 72 h drug exposure, ATP luminescence readout, read-out: IC50, anti-proliferative activity (inhibition of cell proliferation) in BT474 cells
Source text: as §1, §2, §3

Structure (SMILES) | IC50 [1] [µM] | IC50 [2] [µM]
COCCN1CCN(CCn2cc3c(ccc4c3sc3ncnc(Nc5ccc(F)c(Cl)c5)c34)n2)CC1 [Example 15, N-(3-chloro-4-fluorophenyl)-2-{2-[4-(2-methoxyethyl)piperazin-1-yl]ethyl}-2H-pyrimido[5′,4′:4,5]thieno[2,3-e]indazol-6-amine] | ≤ 5 | ≤ 50
Fc1ccc(Nc2ncnc3sc4c5cn(CCN6CCCCC6)nc5ccc4c23)cc1Cl [Example 16, N-(3-chloro-4-fluorophenyl)-2-(2-piperidin-1-ylethyl)-2H-pyrimido[5′,4′:4,5]thieno[2,3-e]indazol-6-amine] | ≤ 5 | ≤ 50
CN(C)[C@@H]1CCN(CCn2cc3c(ccc4c3sc3ncnc(Nc5ccc(F)c(Cl)c5)c34)n2)C1 [Example 4] | ≤ 5 | ≤ 50
Fc1ccc(Nc2ncnc3sc4c5cn(CCN6CCCC6)nc5ccc4c23)cc1Cl [Example 17, N-(3-chloro-4-fluorophenyl)-2-(2-pyrrolidin-1-ylethyl)-2H-pyrimido[5′,4′:4,5]thieno[2,3-e]indazol-6-amine] | ≤ 5 | ≤ 50
Fc1ccc(Nc2ncnc3sc4c5cn(CCNCCN6CCOCC6)nc5ccc4c23)cc1Cl [Example 5, N-(3-chloro-4-fluorophenyl)-2-{2-[(2-morpholin-4-ylethyl)amino]ethyl}-2H-pyrimido[5′,4′:4,5]thieno[2,3-e]indazol-6-amine] | ≤ 5 | ≤ 50
CN(C)[C@H]1CCN(CCn2cc3c(ccc4c3sc3ncnc(Nc5ccc(F)c(Cl)c5)c34)n2)C1 [Example 13, N-(3-chloro-4-fluorophenyl)-2-{2-[(3S)-3-(dimethylamino)pyrrolidin-1-yl]ethyl}-2H-pyrimido[5′,4′:4,5]thieno[2,3-e]indazol-6-amine] | ≤ 50 | ≤ 50
Fc1ccc(Nc2ncnc3sc4c5cn(CCN6CCNCC6)nc5ccc4c23)cc1Cl [Example 10, N-(3-chloro-4-fluorophenyl)-2-(2-piperazin-1-ylethyl)-2H-pyrimido[5′,4′:4,5]thieno[2,3-e]indazol-6-amine] | ≤ 5 | ≤ 50
CN1CCN(CCn2cc3c(ccc4c3sc3ncnc(Nc5ccc(F)c(Cl)c5)c34)n2)CC1 [Example 11, N-(3-chloro-4-fluorophenyl)-2-[2-(4-methylpiperazin-1-yl)ethyl]-2H-pyrimido[5′,4′:4,5]thieno[2,3-e]indazol-6-amine] | ≤ 5 | ≤ 50
Fc1ccc(Nc2ncnc3sc4c5cn(CCN6CCOCC6)nc5ccc4c23)cc1Cl [Example 9, N-(3-chloro-4-fluorophenyl)-2-(2-morpholin-4-ylethyl)-2H-pyrimido[5′,4′:4,5]thieno[2,3-e]indazol-6-amine] | ≤ 5 | ≤ 50

Second part, the molecule after the results:

IC50 [1] [µM] | IC50 [2] [µM] | Structure (SMILES)
≤ 5 | ≤ 50 | CS(=O)(=O)OCCn1cc2c(ccc3c2sc2ncnc(Nc4ccc(F)c(Cl)c4)c23)n1 [Example 2, 2-{6-[(3-chloro-4fluorophenyl)amino]-2H-pyrimido[5′,4′:4,5]thieno[2,3-e]indazol-2-yl}ethylmethanesulfonate]
≤ 5 | ≤ 50 | OCCN(CCO)CCn1cc2c(ccc3c2sc2ncnc(Nc4ccc(F)c(Cl)c4)c23)n1 [Example 14, 2,2′-[(2-{6-[(3-chloro-4-fluorophenyl)amino]-2H-pyrimido[5′,4′:4,5]thieno[2,3-e]indazol-2-yl}ethyl)imino]diethanoltrifluoroacetate (salt)]
≤ 5 | ≤ 50 | Fc1ccc(Nc2ncnc3sc4c5cn(CCN6CCN(Cc7ccncc7)CC6)nc5ccc4c23)cc1Cl [Example 18, N-(3-chloro-4-fluorophenyl)-2-{2-[4-(pyridin-4-ylmethyl)piperazin-1-yl]ethyl}-2H-pyrimido[5′,4′:4,5]thieno[2,3-e]indazol-6-amine]
≤ 50 | ≤ 50 | COCCN(CCOC)CCn1cc2c(ccc3c2sc2ncnc(Nc4ccc(F)c(Cl)c4)c23)n1 [Example 8, 2-{2-[bis(2-methoxyethyl)amino]ethyl}-N-(3-chloro-4-fluorophenyl)-2H-pyrimido[5′,4′:4,5]thieno[2,3-e]indazol-6-amine]
≤ 50 | ≤ 50 | Fc1ccc(Nc2ncnc3sc4c5cn(CCn6ccnc6)nc5ccc4c23)cc1Cl [Example 12, N-(3-chloro-4-fluorophenyl)-2-[2-(1H-imidazol-1-yl)ethyl]-2H-pyrimido[5′,4′:4,5]thieno[2,3-e]indazol-6-amine]
≤ 5 | ≤ 50 | COCCNCCn1cc2c(ccc3c2sc2ncnc(Nc4ccc(F)c(Cl)c4)c23)n1 [Example 6, N-(3-chloro-4-fluorophenyl)-2-{2-[(2-methoxyethyl)amino]ethyl}-2H-pyrimido[5′,4′:4,5]thieno[2,3-e]indazol-6-amine]
≤ 5 | ≤ 50 | OCCNCCn1cc2c(ccc3c2sc2ncnc(Nc4ccc(F)c(Cl)c4)c23)n1 [Example 7, 2-[(2-{6-[(3-chloro-4-fluorophenyl)amino]-2H-pyrimido[5′,4′:4,5]thieno[2,3-e]indazol-2-yl}ethyl)amino]ethanol]
≤ 50 | ≤ 50 | COCCN(C)CCn1cc2c(ccc3c2sc2ncnc(Nc4ccc(F)c(Cl)c4)c23)n1 [Example 19, N-(3-chloro-4-fluorophenyl)-2-{2-[(2-methoxyethyl)(methyl)amino]ethyl}-2H-pyrimido[5′,4′:4,5]thieno[2,3-e]indazol-6-amine]
≤ 5 | ≤ 50 | OCCn1cc2c(ccc3c2sc2ncnc(Nc4ccc(F)c(Cl)c4)c23)n1 [Example 1, 2-{6-[(3-chloro-4fluorophenyl)amino]-2H-pyrimido[5′,4′:4,5]thieno[2,3-e]indazol-2-yl}ethanol]
≤ 5 | ≤ 50 | CN(C)[C@H]1CCN(CCn2ncc3c4sc5ncnc(Nc6ccc(F)c(Cl)c6)c5c4ccc32)C1 [Example 20, N-(3-chloro-4-fluorophenyl)-3-{2-[(3S)-3-(dimethylamino)pyrrolidin-1-yl]ethyl}-3H-pyrimido[5′,4′:4,5]thieno[2,3-e]indazol-6-amine]
≤ 5 | ≤ 50 | OCCn1ncc2c3sc4ncnc(Nc5ccc(OCc6cccc(F)c6)c(Cl)c5)c4c3ccc21 [Example 21, 2-[6-({3-chloro-4-[(3-fluorobenzyl)oxy]phenyl}amino)-3H-pyrimido[5′,4′:4,5]thieno[2,3-e]indazol-3-yl]ethanol]
≤ 50 | ≤ 50 | Clc1cc(Nc2ncnc3sc4c(ccc5c4cnn5CCBr)c23)ccc1OCc1ccccn1 [Example 22, 3-(2-bromoethyl)-N-[3-chloro-4-(pyridin-2-ylmethoxy)phenyl]-3H-pyrimido[5′,4′:4,5]thieno[2,3-e]indazol-6-amine]
≤ 5 | ≤ 50 | CS(=O)(=O)CCNCCn1cc2c(ccc3c2sc2ncnc(Nc4ccc(F)c(Cl)c4)c23)n1 [Example 3, N-(3-chloro-4-fluorophenyl)-2-(2-{[2-(methylsulfonyl)ethyl]amino}ethyl)-2H-pyrimido[5′,4′:4,5]thieno[2,3-e]indazol-6-amine]
